Entries after “also recorded” stand apart in the source; their conditions may differ.
Key:
GFAP-GFP transgene = test: Non-invasive in vivo neural imaging of GFAP-GFP transgenic neonatal mice (relative fluorescence, IVIS); parameters: species or system mouse; conditions: for increase in relative fluorescence (RF), mean, compared to 0 hr: 6 hr after treatment; for increase in relative fluorescence (RF), mean, over the control group: 6 hr post-treatment, P<0.01
Text: The generation and genotyping of the transgenic GFAP-GFP mice were done as previously described (Zhuo et al., 1997). Neonatal mice of FVB/N background at 4 days of age, weighing 2.0 g-2.5 g were used in the present study. Animal husbandry was provided by National University of Singapore animal holding unit facility. The experimental protocol covering the current study was approved by the Institutional Animal Care and Use Committee.
The neonatal mice received a single subcutaneous (sc) injection of 2′-CH3-MPTP (12 mg/kg in saline) at 0 hour. Saline was used as a vehicle for the control group. Neural imaging was subsequently performed at 2 hr, 4 hr, 6 hr and 8 hr post-treatment.
Non-invasive imaging was conducted using an IVIS Imaging System 100 Series (Xenogen Corp., Alameda, Calif., U.S.A.). A 2′-CH3-MPTP-treated pair comprising of a transgenic and a non-transgenic neonatal mouse was positioned beside one another and held in position without anesthesia by physically restraining the mice on the lower back using tape. […] Subsequently, the pair of neonatal mice were fluorescently imaged with the GFP filter set equipped with the IVIS system. The image acquisition time was ten seconds. The same procedure was applied on the control pair injected with saline as well. Result of the neurotoxic effect of 2′-CH3-MPTP on the mice was expressed as relative fluorescence (RF), a ratio between the total GFP fluorescent signals detected from the region of interest (ROI) in transgenic (Tg) mouse and the tissue autofluorescence signals from the ROI in non-transgenic (nTg) mouse (TgROI/nTgROI). The area of the ROI for both mice is exactly the same and is identical throughout all the ROI used in the study to quantify the radiances. To minimize any variations due to the imaging system, three images were captured for each pair of treated and control mice and the mean value derived used as the quantitative reading for that particular pair. The values of the control (n=5 pairs of mice) and treated groups (n=5 pairs of mice) were expressed as means±SEM and statistical significance was evaluated using Student's two-tailed paired t-test.
The neurotoxin used was 2′-CH3-MPTP.
The neurotoxins used were 2′-CH3-MPTP and Kainic Acid (KA). […] KA was used in dosages 2 mg/kg with one injection. All injections were carried out subcutaneously.

[1] = test system: GFP expression in the astrocytes; test: Confocal imaging of endogenous GFP with GFAP immunostaining in brain cryosections; assay type: in vivo, mouse; conditions: for GFP expression in the astrocytes: Tg mice
Experimental: (§1) In order to determine whether the photons were being emitted from the astrocytes in the CNS, the brains were harvested and fixed with 4% paraformaldehyde in 0.1 M phosphate buffer saline (PBS, pH 7.4) for 4 hr at 4° C. The brains were then washed three times in PBS with an incubation time of 15 min each time before soaking in 30% sucrose overnight at 4° C. All brains were embedded in freezing medium after immersing the tissues in liquid nitrogen prior to mounting and sectioning them using a cryostat (Leica Microsystems, Nussloch GmbH; CM-3050S). Coronal cryosections, 20 μm in thickness of the substantia nigra (bregma −3.16 mm, interaural 0.64 mm) were used for immunohistochemistry according to the Atlas of Mouse brain (Franklin and Paxinos, 2001). Each of the control and treated group contained 4 animals […].
For tyrosine hydroxylase (TH) and GFAP immunostaining, a rabbit anti-TH polyclonal antibody (Chemicon International, Temecula, Calif., USA; Ab-152) and a rabbit anti-GFAP polyclonal antibody (DakoCytomation, Denmark; Z-0334) were used. The cryosections were washed for 5 min in 0.15 M 1×PBS followed by incubating for 4 hr at 4° C. in blocking solution of PBS containing 0.1% (v/v) Triton X-100 and 10% nonimmune goat serum. The cryosections were then washed in 0.15 M 1×PBS three times, each for 15 min. The brain sections were then incubated overnight with anti-TH antibody (1:200) and anti-GFAP antibody (1:200), in 1×PBS containing 0.01% (v/v) Triton X-100 and 1% nonimmune goat serum at 4° C. After a three times 15 min rinse in 1×PBS, the sections were incubated with Texas-red conjugated goat polyclonal to rabbit secondary IgG antibody (Abcam Ltd, Cambridge, U.K.; Ab-7088) at 1:100 dilution in PBS containing 0.01% (v/v) Triton X-100 and 1% nonimmune goat serum for 2 hr at room temperature. After another three times 15 min rinse in 1×PBS, the sections were coverslipped in 10 μl of the fluorescence medium and viewed under the confocal laser scanning microscope (Olympus Optical Co. Ltd. Tokyo, Japan; IX-71).

[2] = test system: tyrosine hydroxylase (TH) immuno-positive dopaminergic neurons; test: TH immunostaining in the substantia nigra compact (SNC); assay type: in vivo, mouse; conditions: 6 hr after 12 mg/kg sc, neonatal mice
Experimental: as §1
For tyrosine hydroxylase (TH) and GFAP immunostaining, a rabbit anti-TH polyclonal antibody (Chemicon International, Temecula, Calif., USA; Ab-152) and a rabbit anti-GFAP polyclonal antibody (DakoCytomation, Denmark; Z-0334) were used. […] After another three times 15 min rinse in 1×PBS, the sections were coverslipped in 10 μl of the fluorescence medium and viewed under the confocal laser scanning microscope (Olympus Optical Co. Ltd. Tokyo, Japan; IX-71).

GFAP gene expression = test: Real-time RT-PCR of brain RNA, GFAP gene expression; assay type: in vivo, mouse; conditions: transgenic mice, 2 hours after treatment, 1×2 mg/kg, p<0.01
Experimental: (§2) […] The brain was removed and then lysed in buffer RA1 and β-mercaptoethanol. Total RNA from the brain was isolated using NucleoSpin® RNA II kit. Total RNA was reverse-transcribed with random hexamers and real-time RT-PCR was performed on the cDNA to quantify gene expression.
(§3) The brain was removed and then lysed in buffer RA1 and β-mercaptoethanol. Total RNA from the brain was isolated using NucleoSpin® RNA II kit. Total RNA was reverse-transcribed with random hexamers and real-time RT-PCR was performed on the cDNA to quantify gene expression. The same procedure is carried out for mice treated with KA (1×2 mg/kg).

GFP gene expression = test: Real-time RT-PCR of brain RNA, GFP gene expression; assay type: in vivo, mouse; conditions: transgenic mice, 2 hours after treatment, 1×2 mg/kg, p<0.05
Experimental: as §2, §3

Structure (SMILES): Cc1ccccc1C1=CCN(C)CC1 [2′-CH3-MPTP, 1-methyl-4-(2′-methylphenyl)-1,2,3,6-tetrahydropyridine]
- increase in relative fluorescence (RF), mean, compared to 0 hr (GFAP-GFP transgene; single dose 12 mg/kg sc, neonatal mice, P<0.0001): 17%
- increase in relative fluorescence (RF), mean, over the control group (GFAP-GFP transgene; single dose 12 mg/kg sc, neonatal mice, brain ROI): 22%
- difference in relative fluorescence (RF) between treated and control group (GFAP-GFP transgene; single dose 12 mg/kg sc, at 4 hr, 6 hr and 8 hr after treatment): significant difference
- expression of the GFAP-GFP transgene in the astrocytes ([1]; SNC sections, 6 hr post-treatment as compared to 0 hr, 12 mg/kg sc): up-regulation
- GFP expression in the astrocytes ([1]; ventricle and hippocampus area, 6 hr after one-time 12 mg/kg sc): evidently increased
- TH immuno-positive fibers and cell bodies / TH-like immunoreactivity [2]: No visual reduction; also recorded: No obvious changes

Structure (SMILES): C=C(C)[C@H]1CN[C@H](C(=O)O)[C@H]1CC(=O)O [KA, Kainic acid]
- increase in relative fluorescence (RF), mean, compared to 0 hr (GFAP-GFP transgene; single dose 2 mg/kg sc, P<0.05): 22%
- increase in relative fluorescence (RF), mean, over the control group (GFAP-GFP transgene; single dose 2 mg/kg sc, neonatal mice): 25%
- difference in relative fluorescence (RF) between treated and control group (GFAP-GFP transgene; single dose 2 mg/kg sc, at 4 hr and 6 hr after treatment): significant difference
- GFP expression in the astrocytes ([1]; various areas of the hippocampus (CA1, CA2, CA3), 6 hr after one-time 2 mg/kg sc): evidently increased
- enhancement in gene expression of GFAP (GFAP gene expression): about 21%
- enhancement in gene expression of GFP (GFP gene expression): ~22%

Structure (SMILES): CN1CC=C(c2ccccc2)CC1 [MPTP, 1-methyl-4-phenyl-1,2,3,6-tetrahydropyridine]
- difference in RF between the different time intervals (GFAP-GFP transgene; single dose 12 mg/kg sc, neonatal transgenic mice (FIG. 9)): no significant difference
